# US6969593B2, “Method for the selective survival or selective growth of a target cell by the use of a conjugate, its use in therapeutics and/or diagnostics and the preparation of said conjugate” (priority 2000, dated 2005)
# Assays:
# Type in all cases: cell-based, Escherichia coli
# [1] = tested on: TG1-fd Bla I7; test: Experiments with selective cultures: mixed culture, colonies counted on Tet dishes; conditions: t = 2 hours; for Bacteria.ml^−1 TG1-fd Bla 17 / % TG1-fd Bla 17: Table 1 results 1; for Bacteria.ml^−1 TG1-fd Bla 17 / Bacteria.ml^−1 TG1-fd Bla I7: complex + or − according to label; for Bacteria.ml^−1 TG1-fd Bla 17: t=0 1.58E+06; for % TG1-fd Bla 17 / % TG1-fd Bla I7: mixture with MM294-pET26b45; for % TG1-fd Bla 17: t=0 20.8%
# Protocol: (§1) 5 ml (OD=1) of the TG1-fd Bla I7 and the MM294-pET26b45 cultures are centrifuged (4000 RPM, 5 minutes) and twice washed in LB for finally being resolved in 5 ml sterile LB. Two cultures are mixed. 1 ml of this culture is diluted in 9 ml LB (5 erlenmeyers in parallell) and the necessary quantity of the ternary complex or the conjugate is added. During one hour at 37° C. incubation takes place whereafter penicilline is introduced in this culture medium (see table above) and agitation is performed during two hours at 37° C.
# (§2) Sampling is made at the start and the finish of the reaction which is diluted and put on Tet or Kan boxes. The incubation takes place all night at 37° C. Calculation of the colonies is made the morning after.
# (§3) Mixtures have been made of bacteria TG1-fd Bla […] and MM294-pET26b45. These mixtures have been brought into contact with the ternary complex and incubated during one hour by 37° C. to allow the triple complex to be formed on the bacteria. After this incubation penicillin is added in the culture medium and cultures grown in shaking suspensions for two hours at 37° C. Subsequently, these mixtures were plated on Tet dishes and Kan dishes and incubated overnight at 37° C. The next day, the number of colonies was counted.
# (§4) The inventors have also been working on the optimisation of the initial number added in the test of the different bacteria.
# [2] = tested on: MM294-pET26b45; test: Spectrophotometric follow up of the cultures (optical density at 600 nm); conditions: 200 and 800 mg.L^−1 of penicillin; with or without triple complex according to label; 37° C.
# Protocol: (§5) Cultures (15 ml, OD=1) of TG1-fd Bla I7 and of MM294-pET26b45 are centrifuged (4000 RPM, 5 minutes). The pellet is washed twice with LB and is resolved in 15 ml sterile LB. In all cases 1 ml of the culture is diluted in 9 ml LB (11 erlenmeyers). Then the necessary quantity of the triple complexes calculated for complete degradation of the penicillin in two hours incubation is added and inbucated one hour at 37° C. Then penicillin is introduced at the final concentrations as indicated in the table below and for two hours at 37° C.
# (§6) A sample is made at the start and then every 30 minutes. The optical density is measured of the sample at 600 nm.
# (§7) In the next step, the applicant determined the conditions where optimal measurements could be made. With the help of spectrophotometric techniques the evolution in the optical density of different cultures was followed. […]
# (§8) These cultures were made in parallel with an increasing concentration of penicillin increasing in the culture medium from 0 mg.L^−1, 50 mg.L^−1, 100 mg.L^−1, 200 mg.L^−1, 400 mg.L^−1 to 800 mg.L^−1. The quantities of the ternary complex were calculated and adapted such that all the penicillin in the medium of culture were hydrolyzed in two hours. […]
# [3] = tested on: TG1-fd Bla I7; test: as above; conditions: 200 and 800 mg.L^−1 of penicillin; with or without ternary complex according to label; 37° C.
# Protocol: as §5, §6, §7, §8
# [4] = tested on: MM294-pET26b45; test: Experiments with selective cultures: mixed culture, colonies counted on Kan dishes; conditions: t = 2 hours, complex + or − according to label
# Protocol: as §1, §2, §3, §4
compound,measurement,setting,value
CC1(C)S[C@@H]2[C@H](NC(=O)Cc3ccccc3)C(=O)N2[C@H]1C(=O)O [penicillin G],Bacteria.ml^−1 TG1-fd Bla 17,[1]; [Pen] 200 mg·L^−1,1 190 ppm
same,% TG1-fd Bla 17,[1]; [Pen] 200 mg·L^−1,15.8%
same,Bacteria.ml^−1 TG1-fd Bla 17,[1]; [Pen] 800 mg·L^−1,1 500 ppm
same,% TG1-fd Bla 17,[1]; [Pen] 800 mg·L^−1,8.9%
same,Bacteria.ml^−1 TG1-fd Bla I7,"[1]; Table 2 results 1, [Pen] 200 mg·L^−1, t=0 2.05E+07",351.2 ppm
same,% TG1-fd Bla I7,"[1]; Table 2 results 1, [Pen] 200 mg·L^−1, t=0 54.2%",50.3%
same,Bacteria.ml^−1 TG1-fd Bla I7,"[1]; Table 2 results 1, [Pen] 800 mg·L^−1, t=0 2.05E+07",439.0 ppm
same,% TG1-fd Bla I7,"[1]; Table 2 results 1, [Pen] 800 mg·L^−1, t=0 54.2%",44.1%
same,Bacteria.ml^−1 TG1-fd Bla I7,"[1]; Table 2 results 2, [Pen] 200 mg·L^−1, t=0 1.37E+08",48.2 ppm
same,% TG1-fd Bla I7,"[1]; Table 2 results 2, [Pen] 200 mg·L^−1, t=0 60.4%",47.1%
same,Bacteria.ml^−1 TG1-fd Bla I7,"[1]; Table 2 results 2, [Pen] 800 mg·L^−1, t=0 1.37E+08",2.9 ppm
same,% TG1-fd Bla I7,"[1]; Table 2 results 2, [Pen] 800 mg·L^−1, t=0 60.4%",6.9%
same,evolution of optical density of the culture during time,[2],tendency to decrease
same,evolution of optical density of the culture during time,[3],tendency to decrease
same,Bacteria.ml^−1 MM294-pET26b45,"[4]; Table 1 results 1, [Pen] 200 mg·L^−1, t=0 6.00E+06",1 667 ppm
same,Bacteria.ml^−1 MM294-pET26b45,"[4]; Table 1 results 1, [Pen] 800 mg·L^−1, t=0 6.00E+06",557 ppm
same,Bacteria.ml^−1 MM294-pET26b45,"[4]; Table 2 results 1, [Pen] 200 mg·L^−1, t=0 1.73E+07",410.4 ppm
same,Bacteria.ml^−1 MM294-pET26b45,"[4]; Table 2 results 1, [Pen] 800 mg·L^−1, t=0 1.73E+07",659.0 ppm
same,Bacteria.ml^−1 MM294-pET26b45,"[4]; Table 2 results 2, [Pen] 200 mg·L^−1, t=0 9.00E+07",82.2 ppm
same,Bacteria.ml^−1 MM294-pET26b45,"[4]; Table 2 results 2, [Pen] 800 mg·L^−1, t=0 9.00E+07",60.0 ppm
